Where a name gives a salt, the structure may show the parent alone. Read-outs that look alike come from different tables or passages of the source.
Tests used:
[1] = test system: P. falciparum 3D7 strain, chloroquine sensitive; test: In vitro antimalarial activity screening (SYBR Green I micromethod); assay type: cell-based; conditions: Plasmodium falciparum, 3D7, 48 h incubation, mean of two experiments in triplicate, read-out: P. falciparum 3D7 IC50
Description: The SYBR^©GreenI-based micromethod was followed for testing the antimalarial activity of the compounds. Erythrocytic stages of P. falciparum 3D7 strain, chloroquine sensitive, were maintained in RPMI 1640 culture medium supplemented with 0.5% Albumax II at 37 °C in an atmosphere with 5% CO2. […] Next, stock solutions of each compound were prepared in DMSO and diluted in RPMI medium in order to obtain concentrations from 10 to 0.01 µg/mL. […] All compounds and controls were placed in triplicate. The plate was incubated under the same conditions. After 48 h, the plate was removed from the incubator and frozen for at least 1 h at -70 °C and then thawed. Finally, 100 µL of SYBR^©GreenI in lysis buffer (0.2 µL/mL) was added per well and shaken for 5 minutes or until no precipitated erythrocytes were observed. The plate was left to stand in the dark for 1 h at room temperature. Fluorescence intensity (FI) for each well was measured. The background of the nonparasitized erythrocytes was subtracted from each well tested.

melting point	IC50 ([1]; Table 1)	IC50 ([1]; Table 2)	Compound
121 to 123 °C			O=C(CCN1CCCN(c2ccc([N+](=O)[O-])cc2)CC1)c1csc2ccccc12 (as salt: hydrochloride) [Compound 9, 1-(benzo[b]thiophen-3-yl)-3-[4-(4-nitrophenyl)-1,4-diazepan-1-yl]propan-1-one]
181 to 183 °C			O=[N+]([O-])c1ccc([C@@]2(NCCC(O)c3ccc4ccccc4c3)CCNC2)c(C(F)(F)F)c1 (stereo partly drawn) (as salt: hydrochloride) [Compound 45, 1-(2-naphthyl)-3-[3-(4-nitro-2-trifluoromethylphenyl)-(S)-pyrrolidin-3-ylamino]-propan-1-ol]
	> 20 µM		COc1ccccc1N1CCN(CCC(=O)c2csc3ccc(F)cc23)CC1 [Compound 2]
	> 20 µM		COc1ccccc1N1CCN(CCC(=O)c2csc3ccccc23)CC1 [Compound 3]
	> 20 µM		Cc1ccc2cccc(N3CCN(CCC(=O)c4csc5ccccc45)CC3)c2n1 [Compound 5]
140 to 141 °C	> 20 µM		O=C(CCN1CCN(c2ccc([N+](=O)[O-])cc2C(F)(F)F)CC1)c1csc2ccccc12 [Compound 6, 1-(Benzo[b]thiophen-3-yl)-3-[4-(4-nitro-2-trifluoromethylphenyl)piperazin-1-yl]propan-1-ona]
144 to 145 °C	> 20 µM		O=C(CCNC1CCN(c2ccc([N+](=O)[O-])cc2)CC1)c1csc2ccccc12 [Compound 8, 1-(Benzo[b]thiophen-3-yl)-3-[1-(4-nitrophenyl)piperidin-4-ylamino]propan-1-one]
	> 20 µM		O=C(CCN1CCCN(c2ccc([N+](=O)[O-])cc2)CC1)c1csc2ccccc12 [Compound 9, 1-(benzo[b]thiophen-3-yl)-3-[4-(4-nitrophenyl)-1,4-diazepan-1-yl]propan-1-one]
	6.13 µM		OC(CCN1CCN(c2cccc3ccccc23)CC1)c1csc2ccccc12 (stereo not drawn) [Compound 11]
	1.3 µM		OC(CCN1CCN(c2cccc3ncccc23)CC1)c1csc2ccccc12 (stereo not drawn) [Compound 24]
	2.22 µM		OC(CCN1CCN(c2ccc3ccccc3n2)CC1)c1csc2ccccc12 (stereo not drawn) [Compound 25]
	0.9 µM		OC(CCN1CCN(c2cccc3c2OCCO3)CC1)c1csc2ccc(F)cc12 (stereo not drawn) [Compound 27]
48 to 50 °C	2.99 µM		O=[N+]([O-])c1ccc(N[C@@H]2CCN(CCC(O)c3csc4ccccc34)C2)c(C(F)(F)F)c1 (stereo partly drawn) [Compound 29, 1-(Benzo[b]thiophen-3-yl)-3-[3-(4-nitro-2-trifluoromethylphenylamino)-(R)-pyrrolidin-1-yl]propan-1-ol]
189 to 190 °C	> 20 µM		O=[N+]([O-])c1ccc(N2CCN(CCC(O)c3csc4ccc(F)cc34)CC2)cc1 (stereo not drawn) [Compound 32, 1-(5-Fluorobenzo[b]thiophen-3-yl)-3-[4-(4-nitrophenyl)piperazin-1-yl]propan-1-ol]
		13 µM	OC(CCN1CCN(c2ccc(Cl)cc2)CC1)c1ccccc1 (stereo not drawn) [Compound 37]
		16.9 µM	COc1ccccc1N1CCN(CCC(O)c2ccc(C)cc2C)CC1 (stereo not drawn) [Compound 43]
		9.64 µM	COc1ccccc1N1CCN(CCC(O)c2ccc3cc(C)ccc3c2)CC1 (stereo not drawn) [Compound 44, 1-(6-methylnapth-2-yl)-3-[4-(2-methoxyphenyl)piperazin-1-yl]propan-1-ol]
		9.1 µM	O=[N+]([O-])c1ccc([C@@]2(NCCC(O)c3ccc4ccccc4c3)CCNC2)c(C(F)(F)F)c1 (stereo partly drawn) [Compound 45, 1-(2-naphthyl)-3-[3-(4-nitro-2-trifluoromethylphenyl)-(S)-pyrrolidin-3-ylamino]-propan-1-ol]

Further lines, the compound ahead of its results:

Compound	melting point	IC50 ([1]; Table 1)	IC50 ([1]; Table 2)
COc1cccc(N2CCN(CCC(O)c3csc4ccc(F)cc34)CC2)c1 (stereo not drawn) (as salt: hydrochloride) [Compound 16, 1-(5-fluorobenzo[b]thiophen-3-yl)-3-[4-(3-methoxyphenyl)piperazin-1-yl]propan-1-ol]	135 to 137 °C		
COc1ccccc1N1CCN(CCC(O)c2ccc3cc(C)ccc3c2)CC1 (stereo not drawn) (as salt: hydrochloride) [Compound 44, 1-(6-methylnapth-2-yl)-3-[4-(2-methoxyphenyl)piperazin-1-yl]propan-1-ol]	116 to 117 °C		
O=C(CCN1CCN(c2cccc3ccccc23)CC1)c1csc2ccc(F)cc12 [Compound 1]		> 20 µM	
O=C(CCN1CCN(c2cccc3cccnc23)CC1)c1csc2ccc(F)cc12 [Compound 4]		> 20 µM	
O=C(CCN1CC[C@@H](Nc2ccc([N+](=O)[O-])cc2C(F)(F)F)C1)c1csc2ccccc12 [Compound 7, 1-(Benzo[b]thiophen-3-yl)-3-[3-(4-nitro-2-trifluoromethylphenylamino)-(R)-pyrrolidin-1-yl] propan-1-one]	98 to 100 °C	> 20 µM	
O=C(CCN1CCN(c2cnc3ccccc3n2)CC1)c1csc2ccccc12 [Compound 10, 1-(Benzo[b]thiophen-3-yl)-3-[4-(quinoxalin-2-yl)piperazin-1-yl]propan-1-one]	145 to 146 °C	> 20 µM	
COc1ccccc1N1CCN(CCC(O)c2csc3ccccc23)CC1 (stereo not drawn) [Compound 13]		1.07 µM	
Oc1ccccc1N1CCN(CCC(O)c2csc3ccccc23)CC1 (stereo not drawn) [Compound 14]		13.7 µM	
COc1cccc(N2CCN(CCC(O)c3csc4ccc(F)cc34)CC2)c1 (stereo not drawn) [Compound 16, 1-(5-fluorobenzo[b]thiophen-3-yl)-3-[4-(3-methoxyphenyl)piperazin-1-yl]propan-1-ol]		1.67 µM	
OC(CCN1CCN(c2cccc3[nH]ccc23)CC1)c1csc2ccccc12 (stereo not drawn) [Compound 17]		6.99 µM	
OC(CCN1CCN(c2cccc3[nH]ccc23)CC1)c1csc2ccc(F)cc12 (stereo not drawn) [Compound 18]		3.81 µM	
OC(CCN1CCN(c2ccc(Cl)cc2)CC1)c1csc2ccccc12 (stereo not drawn) [Compound 19]		5.65 µM	
OC(CCN1CCN(c2cccc3cccnc23)CC1)c1csc2ccccc12 (stereo not drawn) [Compound 20]		2.15 µM	
OC(CCN1CCN(c2cccc3cccnc23)CC1)c1csc2ccc(F)cc12 (stereo not drawn) [Compound 21]		0.79 µM	
Cc1ccc2cccc(N3CCN(CCC(O)c4csc5ccccc45)CC3)c2n1 (stereo not drawn) [Compound 22]		0.66 µM	
OC(CCN1CCN(c2cccc3c2OCCO3)CC1)c1csc2ccccc12 (stereo not drawn) [Compound 26]		3.56 µM	
O=[N+]([O-])c1ccc(N2CCN(CCC(O)c3csc4ccccc34)CC2)c(C(F)(F)F)c1 (stereo not drawn) [Compound 28, 1-(Benzo[b]thiophen-3-yl)-3-[4-(4-nitro-2-trifluoromethylphenyl)piperazin-1-yl]propan-1-ol]	154 to 155 °C	0.68 µM	
O=[N+]([O-])c1ccc(N2CC[C@H](NCCC(O)c3csc4ccccc34)C2)c(C(F)(F)F)c1 (stereo partly drawn) [Compound 30, 1-(Benzo[b]thiophen-3-yl)-3-[1-(4-nitro-2-trifluoromethylphenyl)-(S)-pyrrolidin-3-ylamino]propan-1-ol]	109 to 110 °C	0.97 µM	
OC(CCN1CCN(c2ccc(Cl)cc2)CC1)c1ccsc1 (stereo not drawn) [Compound 36]			> 20 µM
COc1ccccc1N1CCN(CCC(O)c2ccccc2)CC1 (stereo not drawn) [Compound 39]			> 20 µM
COc1ccccc1N1CCN(CCC(O)c2ccc3ccccc3c2)CC1 (stereo not drawn) [Compound 42]			0.83 µM
Cc1ccc(C(O)CCN2CCN(c3ccccc3O)CC2)c(C)c1 (stereo not drawn) [Compound 46]			18.2 µM

Reference: paper PMC6255377, “New 1-Aryl-3-Substituted Propanol Derivatives as Antimalarial Agents” (Molecules, 2009)
